From patent US10385011B2, “Benzoic acid amide compound” (AMOREPACIFIC CORPORATION, priority 2015, dated 2019)
pIC50: −log10 of the molar value.

Each molecule was assayed on Mouse-derived B16F10 melanoma cells (assay: Effect of reducing melanin production in melanocytes (Dooley's method)). Details: B16-F10, 120 h, medium with compound replaced for three consecutive days, melanin extracted after 5 days, absorbance at 405 nm, read-out: IC50, concentration required to inhibit melanin production in melanocytes to half.
Assay type: cell-based
Experimental: The effect of inhibiting melanin production of the benzoic acid amide derivative compounds prepared in Examples in melanocytes was measured according to the Dooley's method. Mouse-derived B16F10 melanoma cells acquired from the Korean Cell Line Bank were used as cell lines. DMEM (Cat No. 11995), FBS (Cat No. 16000-044), and antibiotic-antifungal agents (Cat No. 15240-062) necessary for cell culturing were purchased from Invitrogen (GIBCO). The cell lines were cultured under the condition of 37° C. and 5% CO2. The cultured B16F10 cells were detached using 0.05% trypsin-EDTA and inoculated onto a 48-well plate with the same cell number (1×10^4 cells/well). From the next day, the culture medium was replaced with one containing 10 ppm of each compound of Examples for three consecutive days. […] After 5 days, melanin was melted and extracted from the cells by treating with 1 N NaOH at 60° C. for 2 hours, which was quantitated by measuring absorbance at 405 nm. The concentrations (IC50) of Examples required to inhibit melanin production in melanocytes to half were calculated and are given in the following Table 1.

| pIC50 | SMILES |
| --- | --- |
| 5.82 | COc1cc(OC)c(-c2cc(C)cc(C)c2)cc1C(=O)NCc1ccc(O)cc1O [Example 8, N-(2,4-dihydroxy-benzyl)-2,4-dimethoxy-5-(3,5-dimethyl-phenyl) Benzoic Acid Amide] |
| 6.22 | COc1cc(OC)c(-c2ccc(F)c(F)c2)cc1C(=O)NCc1ccc(O)cc1O [Example 9, N-(2,4-dihydroxy-benzyl)-2,4-dimethoxy-5-(3,4-difluoro-phenyl) Benzoic Acid Amide] |
| 5.89 | COc1cc(OC)c(-c2cccc([N+](=O)[O-])c2)cc1C(=O)NCc1ccc(O)cc1O [Example 10, N-(2,4-dihydroxy-benzyl)-2,4-dimethoxy-5-(3-nitro-phenyl) Benzoic Acid Amide] |
| 6.05 | COc1cc(OC)c(C2=CCCCC2)cc1C(=O)NCc1ccc(O)cc1O [Example 11, 5-cyclohexene-1-yl-N-(2,4-dihydroxy-benzyl)-2,4-dimethoxy-benzoic Acid Amide] |
| 5.68 | COc1cc(OC)c(C2CCCCC2)cc1C(=O)NCc1ccc(O)cc1O [Example 12, 5-cyclohexyl-N-(2,4-dihydroxy-benzyl)-2,4-dimethoxy-benzoic Acid Amide] |
| 6.10 | CCCCc1ccc(O)cc1O [Rucinol, reference compound] |

Further lines, the molecule ahead of its results:

| SMILES | pIC50 |
| --- | --- |
| COc1cc(OC)c(C(C)(C)C)cc1C(=O)NCc1ccc(O)cc1O [Example 1, 5-tert-butyl-N-(2,4-dihydroxy-benzyl)-2,4-dimethoxy-benzoic Acid Amide] | 5.64 |
| COc1ccc(-c2cc(C(=O)NCc3ccc(O)cc3O)c(OC)cc2OC)cc1 [Example 5, N-(2,4-dihydroxy-benzyl)-2,4-dimethoxy-5-(4-methoxy-phenyl) Benzoic Acid Amide] | 6.15 |
| COc1cc(OC)c(-c2ccc(F)cc2)cc1C(=O)NCc1ccc(O)cc1O [Example 6, N-(2,4-dihydroxy-benzyl)-2,4-dimethoxy-5-(4-fluoro-phenyl)-benzoic Acid Amide] | 6.15 |
| COc1cc(OC)c(-c2ccc3c(c2)OCO3)cc1C(=O)NCc1ccc(O)cc1O [Example 7, 5-benzo[1,3]dioxol-5-yl-N-(2,4-dihydroxy-benzyl)-2,4-dimethoxy-benzoic Acid Amide] | 6.15 |
